According to publication PMC6069857, “Effects of novel HDAC inhibitors on urothelial carcinoma cells” (Clinical Epigenetics, 2018):

What was measured:
Format in all cases: cell-based, human
[1] = test system: UC cell lines (VM-CUB1, UM-UC-3, 639-V); assay: MTT viability assay, UC cell lines taken together; details: MTT and HCA live/dead assays
Protocol: Further experiments were performed in VM-CUB1 and UM-UC-3 cells overexpressing HDAC4 (see below). Standard UCCs were obtained from the DSMZ (Braunschweig, Germany) and Dr. H.B. Grossmann HB (Houston, USA). For comparison, we investigated the spontaneously immortalized normal human bladder cell line HBLAK (provided by CELLnTEC, Bern, Switzerland) and the immortalized human embryonic kidney cell line HEK-293 (provided by Dr. V. Kolb-Bachofen, Duesseldorf, Germany). Cells were cultured and treated in DMEM GlutaMAX-I (Gibco, Darmstadt, Germany; UCCs and HEK-293) supplemented with 10% fetal calf serum (Biochrom, Berlin, Germany), except for HBLAK cultured in CnT-Prime Epithelial Culture Medium (CELLnTEC, Bern, Switzerland; HBLAK), at 37 °C and 5% CO2. […]
For the determination of cellular mean cytotoxic concentration (CC50), UCCs, non-malignant control cells, and HDAC4-overexpressing clones were seeded in a 96-well format and treated once with a range of defined concentrations of the HDAC inhibitors. After 72 h, viability was quantified by NAD(P)H-dependent 3-(4,5-dimethylthiazol-2-yl)-2,5-diphenyltetrazolium bromide dye reduction assay (MTT, Sigma Aldrich, St. Louis, MO). […] For time-dependent proliferation experiments, viability of untreated or inhibitor-treated cells was measured after 24, 48, and 72 h.

[2] = test system: VM-CUB1; assay: MTT viability assay (CC50)
Protocol: (§1) Further experiments were performed in VM-CUB1 and UM-UC-3 cells overexpressing HDAC4 (see below). Standard UCCs were obtained from the DSMZ (Braunschweig, Germany) and Dr. H.B. Grossmann HB (Houston, USA). For comparison, we investigated the spontaneously immortalized normal human bladder cell line HBLAK (provided by CELLnTEC, Bern, Switzerland) and the immortalized human embryonic kidney cell line HEK-293 (provided by Dr. V. Kolb-Bachofen, Duesseldorf, Germany). Cells were cultured and treated in DMEM GlutaMAX-I (Gibco, Darmstadt, Germany; UCCs and HEK-293) supplemented with 10% fetal calf serum (Biochrom, Berlin, Germany), except for HBLAK cultured in CnT-Prime Epithelial Culture Medium (CELLnTEC, Bern, Switzerland; HBLAK), at 37 °C and 5% CO2. STR (short tandem repeat) profiling via DNA fingerprint analysis was performed for all cell lines. Primary cultures of normal urothelial cells (UP) were established from healthy ureters removed during tumor nephrectomy and cultured as described. These cultures were used with informed consent of the patients and approval by the Ethics Committee of the Medical Faculty of the Heinrich-Heine-University, study number 1788. All inhibitors were dissolved in DMSO and stored as 10 mM stocks. […] The pan-HDACi inhibitor SAHA previously studied in detail was used for comparison. Solvent control cells were treated with equal amounts of DMSO.
(§2) For the determination of cellular mean cytotoxic concentration (CC50), UCCs, non-malignant control cells, and HDAC4-overexpressing clones were seeded in a 96-well format and treated once with a range of defined concentrations of the HDAC inhibitors. After 72 h, viability was quantified by NAD(P)H-dependent 3-(4,5-dimethylthiazol-2-yl)-2,5-diphenyltetrazolium bromide dye reduction assay (MTT, Sigma Aldrich, St. Louis, MO). CC50 values were estimated from three independent experiments by non-linear regression analysis (four-parameter logistic equation) using Prism 4.0 (Graph Pad) or Origin 8.0 (Origin Lab, Northhampton, GB). For time-dependent proliferation experiments, viability of untreated or inhibitor-treated cells was measured after 24, 48, and 72 h.

[3] = test system: UM-UC-3; assay: MTT viability assay (CC50); details: UM-UC-3, MTT
Protocol: as §1, §2

[4] = test system: HBLAK; assay: MTT viability assay (CC50); details: 72 h of incubation
Protocol: as §1, §2

[5] = test system: 639-V; assay: MTT viability assay (CC50)
Protocol: as §1, §2

[6] = test system: VM-CUB1; assay: High-content analysis-based fluorescent live/dead assay; details: VMCub1, HCA, 72 h
Protocol: (§3) Live and dead cells were assayed by high-content analysis (HCA). […] After 72 h of treatment, cells were stained with a mixture of Hoechst 33342 (Sigma Aldrich, St. Louis, MO), calcein AM (Merck Millipore, Germany), and propidium iodide (Santa Cruz Biotechnology, Heidelberg) for cell nuclei, live and dead cells. The staining solution was replaced by PBS after 20 min. Images were acquired using ArrayScan XTI Live High Content Platform (Thermo Fisher Scientific Inc., USA) using excitation filters of 386, 485, and 560 nm for Hoechst 33342, calcein AM, and propidium iodide, respectively. The results were analyzed using HCS Studio Cellomics Scan (Thermo Fisher Scientific Inc., USA).

[7] = test system: UM-UC-3; assay: as above; details: UM-UC-3, HCA, 72 h
Protocol: as §3

[8] = test system: HBLAK; assay: as above; details: HCA, 72 h
Protocol: as §3

[9] = test system: 639-V; assay: as above; details: HCA, 72 h
Protocol: as §3

[10] = test system: UCCs; assay: Western blot of acetylated α-tubulin and histones H3/H4; details: 48 h; 19i 1 or 2 μM, SAHA 2.5 μM
Protocol: Total protein extraction, purification of histones, and Western blot analysis were performed as previously described. Briefly, cells were incubated for 30 min on ice in RIPA-buffer (150 mM NaCl, 1% Triton X-100, 0.5% desoxycholate, 1% Nonidet P-40, 0.1% SDS, 1 mM EDTA, 50 mM TRIS (pH 7.6)) containing 10 μl/ml protease inhibitor cocktail (#P-8340, Sigma Aldrich, St. Louis, MO). Histones were extracted for detection of histone H3 and H4 acetylation by a modified published protocol employing sulfuric acid extraction and TCA-precipitation. Concentrations of total protein and histones were determined by BCA protein assay (Thermo Fisher Scientific, Carlsbad, CA). Subsequently, total cell proteins (15 μg) or extracted histones (2 μg) were separated by SDS-PAGE (total proteins 10–12% gels, histones 15% gels), transferred to PVDF membranes (Merck Millipore, Berlin, Germany), and were incubated with primary antibodies (at RT for 1 h or 4 °C overnight, see Additional file 3: Table S2) following blocking with 5% non-fat milk or BSA (bovine serum albumin) in TBST (150 mM NaCl, 10 mM TRIS, pH 7.4 and 0.1% Tween-20). For signal detection, membranes were incubated with a suitable horseradish peroxidase-conjugated secondary antibody (see Additional file 2: Table S1) at RT for 1 h and signals were visualized by SuperSignal™ West Femto (Thermo Fisher Scientific, Carlsbad, CA) and WesternBright Quantum kit (Biozym, Hessisch Oldendorf, Germany).

| Compound | concentrations effective on / impeding proliferation of UC cell lines [1] [µM] | CC50 ([2]; VM-CUB1, MTT, 72 h of incubation) [µM] | CC50 ([2]; VMCub1, MTT, 24 h) [µM] | CC50 ([2]; VMCub1, MTT, 48 h) [µM] | CC50 ([3]; 24 h) [µM] | CC50 ([3]; 48 h) [µM] | CC50 ([3]; 72 h of incubation) [µM] | CC50 [4] [µM] | CC50 ([5]; 24 h) [µM] | CC50 ([5]; 48 h) [µM] | CC50 ([5]; 72 h of incubation) [µM] | CC50 [6] [µM] | CC50 [7] [µM] | CC50 [8] [µM] | CC50 [9] [µM] | acetylation of α-tubulin [10] |
| --- | --- | --- | --- | --- | --- | --- | --- | --- | --- | --- | --- | --- | --- | --- | --- | --- |
| O=C(NCC1(c2nc(-c3ccccc3)cs2)CCOCC1)c1cccc(-c2noc(C(F)(F)F)n2)c1 [TMP269] | > 10 | 45.9 | 115 | 115 | 110 | 73.8 | 32.3 | 48.7 | 96.1 | 65.8 | 39.4 | 20.1 | 14.6 | 10.6 | 16.5 |  |
| O=C(CCCCCCC(=O)Nc1ccccc1)NO [SAHA, suberoylanilide hydroxamic acid, reference compound] |  |  |  |  |  |  |  |  |  |  |  |  |  |  |  | strongly induced |
